Experimental data published in publication PMC9515629, “Cystargolide-based amide and ester Pz analogues as proteasome inhibitors and anti-cancer agents” (Royal Society Open Science, 2022).
Like-named read-outs stand apart in the source and are kept apart here.

Experiments:
MDA-MB-231 cells [1] = assay: Cytotoxicity toward MDA-MB-231 cells; assay type: cell-based; conditions: Homo sapiens, read-out: cytotoxicity IC50 ± s.d., MDA-MB-231
Experimental: (§1) Next, analogues 8a–l were evaluated for their cytotoxicities toward Jurkat cells, a human T-cell leukemia model, as well as the breast cancer cell lines MCF-7 and MDA-MB-231, and the multiple myeloma cell line RPMI 8226.

MCF-7 cells [2] = assay: Cytotoxicity toward MCF-7 cells; assay type: cell-based; conditions: Homo sapiens, MCF7; read-out: cytotoxicity IC50 ± s.d., MCF-7
Experimental: as §1

[3] = target: T1, β5 subunit of human proteasomes (hβ5) (Homo sapiens, UniProt P28074); assay: Proteasome chymotrypsin-like (β5) activity in crude Jurkat cell lysate, Suc-LLVY-AMC substrate; assay type: biochemical; conditions: read-out: proteasome inhibition IC50 ± s.d., hβ5
T1 construct: endogenous in cells; host or cells: Jurkat cell lysate (crude)
T1 sequence (P28074 60-263): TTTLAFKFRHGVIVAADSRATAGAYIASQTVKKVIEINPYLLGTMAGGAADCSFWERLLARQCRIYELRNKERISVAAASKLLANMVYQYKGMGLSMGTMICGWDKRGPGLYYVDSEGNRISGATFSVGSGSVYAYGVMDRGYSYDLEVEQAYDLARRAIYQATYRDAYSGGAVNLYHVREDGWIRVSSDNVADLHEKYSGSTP
Experimental: Based on our previously reported procedure, the degree of peptide cleavage in a crude Jurkat cell lysate was measured to determine proteasome activity. The fluorescent substrate Suc-LLVY-AMC (Enzo Life Sciences) was used to determine chymotrypsin-like (β5) activity of the proteasomes.

RPMI 8226 cells [4] = assay: Cytotoxicity toward RPMI 8226 cells; assay type: cell-based; conditions: Homo sapiens, read-out: cytotoxicity IC50 ± s.d., RPMI 8226
Experimental: as §1

Jurkat cells = assay: Cytotoxicity toward Jurkat cells; assay type: cell-based; conditions: Homo sapiens, read-out: cytotoxicity IC50 ± s.d., Jurkat
Experimental: as §1

MCF-10A cells = assay: Cytotoxicity toward MCF-10A cells (normal breast tissue model); assay type: cell-based; conditions: Homo sapiens, model for normal breast tissue
MCF-7 cells [5] = tested on: MCF-7 cells; design: method as in PMID 30165344; conditions: earlier work; read-out: cytotoxicity IC50, MCF-7; cited from earlier work
MDA-MB-231 cells [6] = tested on: MDA-MB-231 cells; design: method as in PMID 30165344; conditions: earlier work; read-out: cytotoxicity IC50, MDA-MB-231; cited from earlier work
RPMI 8226 cells [7] = tested on: RPMI 8226 cells; design: method as in PMID 30165344; conditions: earlier work; read-out: cytotoxicity IC50, RPMI 8226; cited from earlier work
[8] = Experimentally determined LogP; assay type: physicochemical
Half-life in buffer = assay type: physicochemical
Description: (§2) Isosteric replacement of the phenyl ring at Pz by either a pyridyl or pyrazyl group was well tolerated, allowing the inclusion of one (compounds 8b–d and 8g–i) or two nitrogen atoms (compounds 8e and 8j).

[9] = Biological stability in serum; assay type: in vitro ADME
Description: as §2

[10] = cited from earlier work

Compound | IC50 (MDA-MB-231 cells [1]) [nM] | IC50 (MCF-7 cells [2]) [nM] | IC50 [3] [nM] | IC50 (RPMI 8226 cells [4]) [nM] | IC50 (Jurkat cells) [nM] | IC50 (MCF-10A cells) [nM] | IC50 (MCF-7 cells [5]) [nM] | IC50 (MDA-MB-231 cells [6]) [nM] | IC50 (RPMI 8226 cells [7]) [nM] | logP [8] | half-life (Half-life in buffer) [min] | biological stability in serum [9] | peripheral neuropathy, share of patients [10]
CC[C@H](C)[C@@H]1C(=O)O[C@H]1C(=O)N[C@H](C(=O)N[C@@H](COCc1ccccc1)C(=O)NCc1ccccc1)C(C)C [8a] | 1940 ± 166 | 2290 ± 195 | 2.3 ± 0.9 | 64 ± 4 | 12 ± 2 | – | – | – | – | – | – | – | –
CC[C@H](C)[C@@H]1C(=O)O[C@H]1C(=O)N[C@H](C(=O)N[C@@H](COCc1ccccc1)C(=O)OCc1ccc(OC)cc1)C(C)C [8l] | 636 ± 47 | 1670 ± 267 | 18.8 ± 5 | 112 ± 2 | 2260 ± 158 | – | – | – | – | – | – | – | –
CC(C)C[C@H](NC(=O)[C@H](CCc1ccccc1)NC(=O)CN1CCOCC1)C(=O)N[C@@H](Cc1ccccc1)C(=O)N[C@@H](CC(C)C)C(=O)[C@@]1(C)CO1 [carfilzomib, reference compound] | 4.4 ± 0.1 | 5.9 ± 0.7 | – | 3.7 ± 0.3 | 3.7 ± 0.3 | 79 | – | – | – | – | – | – | –
CC[C@H](C)[C@@H]1C(=O)O[C@H]1C(=O)N[C@H](C(=O)N[C@@H](COCc1ccccc1)C(=O)OCc1ccncc1)C(C)C [8i] | 108 ± 7 | 4930 ± 403 | 4 ± 1.1 | 35 ± 3 | 36 ± 10 | – | – | – | – | – | – | – | –
CC[C@H](C)[C@@H]1C(=O)O[C@H]1C(=O)N[C@H](C(=O)N[C@@H](COCc1ccccc1)C(=O)OCc1ccccc1)C(C)C [compound 1] | 620 ± 50 | 2380 ± 261 | – | 45 ± 0.5 | 62 ± 7 | – | 416 | 74 | 41 | – | – | – | –
CC[C@H](C)[C@@H]1C(=O)O[C@H]1C(=O)N[C@H](C(=O)N[C@@H](COCc1ccccc1)C(=O)NCc1cccnc1)C(C)C [8c] | 242 ± 6 | 5630 ± 550 | 3.9 ± 1.8 | 85 ± 3 | 71 ± 19 | – | – | – | – | – | – | – | –
CC[C@H](C)[C@@H]1C(=O)O[C@H]1C(=O)N[C@H](C(=O)N[C@@H](COCc1ccccc1)C(=O)OCc1cnccn1)C(C)C [8j] | 146 ± 3 | 4530 ± 290 | 13.7 ± 1.6 | 48 ± 2 | 166 ± 9 | – | – | – | – | – | – | – | –
CC[C@H](C)[C@@H]1C(=O)O[C@H]1C(=O)N[C@H](C(=O)N[C@@H](COCc1ccccc1)C(=O)OCc1ccc(Cl)cc1)C(C)C [8k] | 222 ± 15 | 3500 ± 279 | 18.2 ± 54 | 182 ± 4 | 182 ± 15 | – | – | – | – | – | – | – | –
CC[C@H](C)[C@@H]1C(=O)O[C@H]1C(=O)N[C@H](C(=O)N[C@@H](COCc1ccccc1)C(=O)NCc1ccccn1)C(C)C [8b] | 156 ± 3 | 453 ± 24 | 4.1 ± 1.9 | 139 ± 6 | 58 ± 14 | – | – | – | – | – | – | – | –
CC[C@H](C)[C@@H]1C(=O)O[C@H]1C(=O)N[C@H](C(=O)N[C@@H](COCc1ccccc1)C(=O)OCc1cccnc1)C(C)C [8h] | 132 ± 3 | 3800 ± 293 | 3.3 ± 1.8 | 43 ± 2 | 61 ± 16 | – | – | – | – | – | – | – | –
CC[C@H](C)[C@@H]1C(=O)O[C@H]1C(=O)N[C@H](C(=O)N[C@@H](COCc1ccccc1)C(=O)OCc1ccccn1)C(C)C [8g] | 39 ± 2 | 1020 ± 42 | 7.1 ± 1.6 | 21 ± 3 | 35 ± 10 | 123 | – | – | – | 1.65 | > 10 | greater than 5 min | –
CC[C@H](C)[C@@H]1C(=O)O[C@H]1C(=O)N[C@H](C(=O)N[C@@H](COCc1ccccc1)C(=O)NCc1cnccn1)C(C)C [8e] | 255 ± 6 | 5180 ± 602 | 8.4 ± 3.4 | 31 ± 2 | 132 ± 4 | – | – | – | – | – | – | – | –
CC[C@H](C)[C@@H]1C(=O)O[C@H]1C(=O)N[C@H](C(=O)N[C@@H](COCc1ccccc1)C(=O)NCc1ccncc1)C(C)C [8d] | 328 ± 12 | 5300 ± 598 | 3 ± 1.2 | 37 ± 1 | 64 ± 10 | – | – | – | – | – | – | – | –
CC[C@H](C)[C@@H]1C(=O)O[C@H]1C(=O)N[C@H](C(=O)N[C@@H](COCc1ccccc1)C(=O)NCc1cc(OC)cc(OC)c1)C(C)C [8f] | 53 ± 2 | 322 ± 39 | 4.5 ± 1.5 | 26 ± 1 | 63 ± 2 | – | – | – | – | – | – | – | –
CC(C)C[C@H](NC(=O)[C@H](Cc1ccccc1)NC(=O)c1cnccn1)B(O)O [bortezomib] | – | – | – | – | – | – | – | – | – | – | – | – | more than 30%
